Reference: PubChem BioAssay AID192 (DTP/NCI, 2004)
Several values for one entry are separate records, joined by “and”; a condition that tells them apart may be missing. Equal entries are not always repeated. Inconclusive results and toxic doses are left out. How the source made its calls: active means survival T/C of 150% or more; inactive means T/C below 125% in these data.

System: BDF1 mice, B16 melanoma ip, median survival T/C
Experiment: NCI In Vivo Anticancer Drug Screen. Data for tumor model B16 Melanoma (intraperitoneal) in B6D2F1 (BDF1) mice
Conditions: endpoint: median survival time, higher = longer survival
In short: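 Read-out: survival or tumor size, given as treated/control ratio. Controls received vehicle only; animals bore transplantable tumors.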

[1] = dose: 100.0 mg/kg/injection, schedule: Q01DX009 (ip), vehicle: saline with Tween-80
[2] = dose: 200.0 mg/kg/injection, schedule: Q01DX009 (ip), vehicle: saline with Tween-80
[3] = dose: 400.0 mg/kg/injection, schedule: Q01DX009 (ip), vehicle: saline with Tween-80
[4] = dose: 100.0 mg/kg/injection, schedule: Q04DX003 (ip), vehicle: saline with Tween-80
[5] = dose: 200.0 mg/kg/injection, schedule: Q04DX003 (ip), vehicle: saline with Tween-80
[6] = dose: 3.12 mg/kg/injection, schedule: Q01DX009 (ip), vehicle: saline
[7] = dose: 6.25 mg/kg/injection, schedule: Q01DX009 (ip), vehicle: saline
[8] = dose: 12.5 mg/kg/injection, schedule: Q01DX009 (ip), vehicle: saline
[9] = dose: 25.0 mg/kg/injection, schedule: Q01DX009 (ip), vehicle: saline
[10] = dose: 50.0 mg/kg/injection, schedule: Q01DX009 (ip), vehicle: saline
[11] = dose: 100.0 mg/kg/injection, schedule: Q01DX009 (ip), vehicle: saline
[12] = dose: 200.0 mg/kg/injection, schedule: Q01DX009 (ip), vehicle: saline
[13] = dose: 400.0 mg/kg/injection, schedule: Q01DX009 (ip), vehicle: saline

Measured: T/C

C=CCOCC(O)CN(CC)c1ccccc1 (configuration not stated)
inactive: dose: 75.0 mg/kg/injection, schedule: Q04DX003 (ip), vehicle: Klucel (hydroxypropylcellulose) (HPC) 89 % of control | dose: 150.0 mg/kg/injection, schedule: Q04DX003 (ip), vehicle: Klucel (hydroxypropylcellulose) (HPC) 89 % of control | dose: 300.0 mg/kg/injection, schedule: Q04DX003 (ip), vehicle: Klucel (hydroxypropylcellulose) (HPC) 98 % of control

Cc1cc2ncn(CO)c2cc1C
inactive: [1] 102 % of control | [2] 97 % of control | [3] 97 % of control

COc1cccc2c1C(=O)c1c(O)c3c(c(O)c1C2=O)C[C@@](O)(C(C)O)C[C@@H]3OC1CC(N2CCOCC2)C(O)C(C)O1 (some centres not stated)
inactive: dose: 62.5 micrograms/kg/injection, schedule: Q01DX001 (ip), vehicle: water 100 % of control | dose: 125.0 micrograms/kg/injection, schedule: Q01DX001 (ip), vehicle: water 104 % of control | dose: 250.0 micrograms/kg/injection, schedule: Q01DX001 (ip), vehicle: water 112 % of control

CC(=O)OCC(OC(C)=O)C(OC(C)=O)C(OC(C)=O)C(C#N)OC(C)=O (configuration not stated)
inactive: dose: 100.0 mg/kg/injection, schedule: Q01DX005 (ip), vehicle: saline with Tween-80 104 % of control | [4] 86 % of control | dose: 200.0 mg/kg/injection, schedule: Q01DX005 (ip), vehicle: saline with Tween-80 100 % of control | [5] 97 % of control | dose: 400.0 mg/kg/injection, schedule: Q01DX005 (ip), vehicle: saline with Tween-80 97 % of control

OCC(F)(F)C(F)(F)C(F)(F)F
inactive: dose: 75.0 mg/kg/injection, schedule: Q01DX009 (ip), vehicle: saline 105 % of control | dose: 150.0 mg/kg/injection, schedule: Q01DX009 (ip), vehicle: saline 106 % of control | dose: 300.0 mg/kg/injection, schedule: Q01DX009 (ip), vehicle: saline 100 % of control

CN(C)CC/C=C1\c2ccccc2CSc2ccccc21
inactive: [6] 90 % of control and 100 % of control | [7] 89 % of control and 100 % of control | [8] 97 % of control | [9] 104 % of control | [10] 95 % of control and 102 % of control

O=C(N/N=C/c1cccc(S(=O)(=O)O)c1)c1ccncc1
inactive: [1] 99 % of control | [2] 100 % of control | [3] 103 % of control

CCC[CH2][Sn]1([CH2]CCC)[O]C2C(CO)OC(n3ccc(N)nc3=O)C2[O]1 (configuration not stated)
inactive: dose: 0.78 mg/kg/injection, schedule: Q01DX009 (ip), vehicle: Klucel (hydroxypropylcellulose) (HPC) 99 % of control | dose: 1.56 mg/kg/injection, schedule: Q01DX009 (ip), vehicle: Klucel (hydroxypropylcellulose) (HPC) 123 % of control | dose: 3.12 mg/kg/injection, schedule: Q01DX009 (ip), vehicle: Klucel (hydroxypropylcellulose) (HPC) 116 % of control | dose: 6.25 mg/kg/injection, schedule: Q01DX009 (ip), vehicle: Klucel (hydroxypropylcellulose) (HPC) 104 % of control and 124 % of control

Cc1ccc(NC(=O)c2ccccc2Cl)cc1Cl
inactive: dose: 75.0 mg/kg/injection, schedule: Q01DX009 (ip), vehicle: Klucel (hydroxypropylcellulose) (HPC) 103 % of control | dose: 150.0 mg/kg/injection, schedule: Q01DX009 (ip), vehicle: Klucel (hydroxypropylcellulose) (HPC) 103 % of control | dose: 300.0 mg/kg/injection, schedule: Q01DX009 (ip), vehicle: Klucel (hydroxypropylcellulose) (HPC) 100 % of control

O=C(Nc1nncs1)c1cccs1
inactive: dose: 12.5 mg/kg/injection, schedule: Q01DX009 (ip), vehicle: saline with Tween-80 101 % of control | dose: 25.0 mg/kg/injection, schedule: Q01DX009 (ip), vehicle: saline with Tween-80 109 % of control | dose: 50.0 mg/kg/injection, schedule: Q01DX009 (ip), vehicle: saline with Tween-80 121 % of control | [1] 109 % of control | [2] 106 % of control

CN1CCc2cc3c(c4c2C1C(O)c1ccccc1-4)OCO3 (configuration not stated)
inactive: dose: 0.5 mg/kg/injection, schedule: Q01DX009 (ip), vehicle: acid diluted with saline 113 % of control | dose: 1.0 mg/kg/injection, schedule: Q01DX009 (ip), vehicle: acid diluted with saline 109 % of control | dose: 2.0 mg/kg/injection, schedule: Q01DX009 (ip), vehicle: acid diluted with saline 96 % of control | dose: 4.0 mg/kg/injection, schedule: Q01DX009 (ip), vehicle: acid diluted with saline 89 % of control

OCC12COCN1COC2
inactive: [8] 117 % of control | [9] 119 % of control | [10] 111 % of control | [11] 117 % of control | [12] 119 % of control

CCOC(=O)CCN1CC(C)OC(C)C1 (configuration not stated)
inactive: [11] 118 % of control | [12] 115 % of control | [13] 118 % of control

CC(C)(C)OC(=O)N1CCCC1C(=O)N1CCCC1C(=O)Oc1ccccc1 (configuration not stated)
inactive: [11] 121 % of control | [12] 110 % of control | [13] 114 % of control

CCOC(=O)NNC(N)=S
inactive: dose: 100.0 mg/kg/injection, schedule: Q01DX009 (ip), vehicle: Klucel (hydroxypropylcellulose) (HPC) 100 % of control | dose: 200.0 mg/kg/injection, schedule: Q01DX009 (ip), vehicle: Klucel (hydroxypropylcellulose) (HPC) 93 % of control | dose: 400.0 mg/kg/injection, schedule: Q01DX009 (ip), vehicle: Klucel (hydroxypropylcellulose) (HPC) 93 % of control

COc1cc(CN(C)C2CCCCC2)cc(OC)c1OC
inactive: [6] 105 % of control | [7] 102 % of control | [8] 95 % of control | [9] 91 % of control | [10] 101 % of control

C=C1CCN(c2ccc(OCC)cc2)C1=O
inactive: dose: 4.0 mg/kg/injection, schedule: Q01DX009 (ip), vehicle: saline + alcohol 93 % of control | dose: 8.0 mg/kg/injection, schedule: Q01DX009 (ip), vehicle: saline + alcohol 95 % of control | dose: 16.0 mg/kg/injection, schedule: Q01DX009 (ip), vehicle: saline + alcohol 107 % of control | dose: 32.0 mg/kg/injection, schedule: Q01DX009 (ip), vehicle: saline + alcohol 115 % of control | dose: 64.0 mg/kg/injection, schedule: Q01DX009 (ip), vehicle: saline + alcohol 93 % of control

Nc1c([N+](=O)[O-])ccc2ccccc12
inactive: [4] 108 % of control | [5] 91 % of control | dose: 400.0 mg/kg/injection, schedule: Q04DX003 (ip), vehicle: saline with Tween-80 100 % of control

O=C(Nc1ccccc1Cl)Oc1ccccc1Cc1ccccc1
inactive: dose: 100.0 mg/kg/injection, schedule: Q04DX003 (ip), vehicle: Klucel (hydroxypropylcellulose) (HPC) 100 % of control | dose: 200.0 mg/kg/injection, schedule: Q04DX003 (ip), vehicle: Klucel (hydroxypropylcellulose) (HPC) 106 % of control | dose: 400.0 mg/kg/injection, schedule: Q04DX003 (ip), vehicle: Klucel (hydroxypropylcellulose) (HPC) 93 % of control

c1cncc(C2OCCO2)c1
inactive: [1] 98 % of control | [2] 89 % of control | [3] 89 % of control

CC(=O)OC(C)C1C2=C(C(=O)CC1(C)O)C(=O)c1c(ccc(-c3ccc4c(c3O)C(=O)C3=C(C4=O)C(C(C)OC(C)=O)C(C)(O)CC3=O)c1O)C2=O (configuration not stated)
inactive: dose: 1.56 mg/kg/injection, schedule: Q01DX009 (ip), vehicle: saline with Tween-80 110 % of control | dose: 3.13 mg/kg/injection, schedule: Q01DX009 (ip), vehicle: saline with Tween-80 117 % of control | dose: 6.25 mg/kg/injection, schedule: Q01DX009 (ip), vehicle: saline with Tween-80 110 % of control
